Converted amounts (≈) assume the structure as drawn.
Experiments:
Candida albicans [1] = test: Antifungal activity against Candida albicans 498 by microdilution method; format: functional
[2] = test system: Trichophyton mentagrophytes; test: Antifungal activity against Trichophyton mentagrophytes IFM 46027 by microdilution method; format: functional
Aspergillus fumigatus [3] = test: Antifungal activity against Aspergillus fumigatus NBRC 4400 by microdilution method; format: functional
Nakaseomyces glabratus [4] = test: Antifungal activity against Candida glabrata; format: functional
Nakaseomyces glabratus [5] = test: Antifungal activity against Candida glabrata 510 by microdilution method; format: functional
Candida parapsilosis [6] = test: Antifungal activity against Candida parapsilosis 90/2224; format: functional; conditions: Lodderomyces parapsilosis
Nakaseomyces glabratus [7] = test: Antifungal activity against Candida glabrata WT-5; format: functional
Candida albicans [8] = test: Antifungal activity against Candida albicans 501 by microdilution method; format: functional
Nakaseomyces glabratus [9] = test: Antifungal activity against Candida glabrata 507 by microdilution method; format: functional
Candida albicans [10] = test: Antifungal activity against Candida albicans NBRC 1385 by microdilution method; format: functional
Candida albicans [11] = test: Antifungal activity against Candida albicans; format: functional, organism-based
Candida tropicalis [12] = test: Antibiofilm activity against Candida tropicalis by CSLM based method; format: functional
Pichia kudriavzevii [13] = test: Antifungal activity against Candida krusei; format: functional
Candida albicans [14] = test: Antifungal activity against FLC-resistant Candida albicans; format: functional
Nakaseomyces glabratus [15] = test: Antifungal activity against Candida glabrata 493 by microdilution method; format: functional
Candida tropicalis [16] = test: Antifungal activity against Candida tropicalis 166 by microdilution method; format: functional
Nakaseomyces glabratus [17] = test: Antifungal activity against Candida glabrata 482 by microdilution method; format: functional
Pichia kudriavzevii [18] = test: Antifungal activity against Candida krusei 168 by microdilution method; format: functional
Pichia kudriavzevii [19] = test: Antifungal activity against Candida krusei ATCC 6258; format: functional
Candida parapsilosis [20] = test: Antifungal activity against Candida parapsilosis ATCC 22014; format: functional; conditions: Lodderomyces parapsilosis
Nakaseomyces glabratus [21] = test: Antifungal activity against Candida glabrata ATCC 90030; format: functional
Candida parapsilosis [22] = test: Antifungal activity against Candida parapsilosis 96 by microdilution method; format: functional; conditions: Lodderomyces parapsilosis
Nakaseomyces glabratus [23] = test: Antifungal activity against Candida glabrata 531 by microdilution method; format: functional
Candida albicans [24] = test: Antifungal activity against Candida albicans 53 by microdilution method; format: functional
Trichophyton rubrum [25] = test: Antifungal activity against Trichophyton rubrum NBRC 5467 by microdilution method; format: functional
Candida albicans [26] = test: Antibiofilm activity against Candida albicans by CSLM based method; format: functional
Candida albicans [27] = test: Antifungal activity against Candida albicans ATCC 10231 by microdilution method; format: functional
Candida parapsilosis [28] = test: Antifungal activity against Candida parapsilosis; format: functional; conditions: Lodderomyces parapsilosis
Pichia kudriavzevii [29] = test: Antifungal activity against Candida krusei CK25; format: functional
Nakaseomyces glabratus [30] = test: Antifungal activity against Candida glabrata 587 by microdilution method; format: functional
Nakaseomyces glabratus [31] = test: Antifungal activity against Candida glabrata after 48 hrs by checkerboard method; format: functional
Candida albicans [32] = test: Antifungal activity against Candida albicans SC 5314 after 48 hrs by checkerboard method; format: functional; conditions: SC 5314, 48 h
Candida albicans [33] = test: Antifungal activity against Candida albicans clinical isolates after 48 hrs by checkerboard method; format: functional
Candida tropicalis [34] = test: Antifungal activity against FLC-resistant Candida tropicalis in presence of FLC; format: functional
Candida parapsilosis [35] = test: Antifungal activity against Candida parapsilosis ATCC 22019 after 18 hrs by two-fold microdilution method; format: functional; conditions: Lodderomyces parapsilosis, ATCC 22019, 18 h
Pichia kudriavzevii [36] = test: Antifungal activity against Candida krusei ATCC 6258 after 18 hrs by two-fold microdilution method; format: functional; conditions: ATCC 6258, 18 h
Nakaseomyces glabratus [37] = test: Antifungal activity against Candida glabrata ATCC 90030 after 18 hrs by two-fold microdilution method; format: functional; conditions: ATCC 90030, 18 h
Candida albicans [38] = test: Antifungal activity against Candida albicans ATCC 90028 after 18 hrs by two-fold microdilution method; format: functional; conditions: ATCC 90028, 18 h
Candida tropicalis [39] = test: Antifungal activity against FLC-resistant Candida tropicalis; format: functional
Candida albicans [40] = test: Antifungal activity against Candida albicans ATCC 44859 after 24 to 48 hrs; format: functional
Aspergillus fumigatus [41] = test: Antifungal activity against Aspergillus fumigatus; format: functional
Trichophyton rubrum [42] = test: Antifungal activity against Trichophyton rubrum ATCC MYA3108 by CLSI-based microdilution method; format: functional
[43] = Inhibition of fatty acid synthase in Trichophyton rubrum ATCC MYA3108
Trichophyton rubrum [44] = test: Antifungal activity against Trichophyton rubrum deltaTruMDR2 by CLSI-based microdilution method; format: functional
Candida albicans [45] = test: Antifungal activity against Candida albicans after 48 hrs by broth micro dilution method; format: functional
Cryptococcus neoformans [46] = test: Antifungal activity against Cryptococcus neoformans after 48 hrs by broth micro dilution method; format: functional
Candida parapsilosis [47] = test: Antifungal activity against Candida parapsilosis after 48 hrs by broth micro dilution method; format: functional; conditions: Lodderomyces parapsilosis
[48] = test system: Trichophyton mentagrophytes; test: Antifungal activity against Trichophyton mentagrophytes after 5 days; format: functional; conditions: 120 h
Cryptococcus gattii = test: Antifungal activity against Cryptococcus gattii after 72 hrs; format: functional, Cryptococcus gattii VGI
Candida tropicalis [49] = test: Antifungal activity against Candida tropicalis CCC 131-2000 after 48 hrs by CLSI-based broth microdilution method; format: functional; conditions: CCC 131-2000, 48 h
Trichophyton tonsurans = test: Antifungal activity against Trichophyton tonsurans after 5 days; format: functional; conditions: 120 h
Candida albicans [50] = test: Antifungal activity against Candida albicans ATCC 10231 after 48 hrs by CLSI-based broth microdilution method; format: functional; conditions: ATCC 10231, 48 h
Nannizzia gypsea = test: Antifungal activity against Microsporum gypseum after 5 days; format: functional; conditions: 120 h
Cryptococcus neoformans [51] = test: Antifungal activity against Cryptococcus neoformans after 72 hrs; format: functional
Cryptococcus neoformans [52] = test: Antifungal activity against Cryptococcus neoformans ATCC 32264 after 48 hrs by CLSI-based broth microdilution method; format: functional; conditions: ATCC 32264, 48 h
Saccharomyces cerevisiae = test: Antifungal activity against Saccharomyces cerevisiae ATCC 9763 after 48 hrs by CLSI-based broth microdilution method; format: functional; conditions: ATCC 9763, 48 h
Trichophyton rubrum [53] = test: Antifungal activity against Trichophyton rubrum after 5 days; format: functional; conditions: 120 h

O=c1cc(-c2ccccc2)oc2cc(O)c(O)c(O)c12 [BAICALEIN]
MIC (Candida albicans [1]): 10.4 µg/mL (≈ 38.5 µM) | MIC [2]: 60 µM (≈ 16.2 µg/mL) | MIC (Aspergillus fumigatus [3]): 230 µM (≈ 62.2 µg/mL) | MIC (Nakaseomyces glabratus [4]): 2.7 µg/mL (≈ 9.99 µM) | MIC (Nakaseomyces glabratus [5]): 1.9 µg/mL (≈ 7.03 µM) | MIC (Candida parapsilosis [6]): 5.4 µg/mL (≈ 20 µM) | MIC (Nakaseomyces glabratus [7]): 52.7 µg/mL (≈ 195 µM) | MIC (Candida albicans [8]): 10.4 µg/mL (≈ 38.5 µM) | MIC (Nakaseomyces glabratus [9]): 1.9 µg/mL (≈ 7.03 µM) | MIC (Candida albicans [10]): 30 µM (≈ 8.11 µg/mL) | MIC (Candida albicans [11]): 5.4 µg/mL (≈ 20 µM) | MIC (Candida tropicalis [12]): 52 to 104 µg/mL (≈ 192 to 385 µM) | MIC (Pichia kudriavzevii [13]): 2.7 µg/mL (≈ 9.99 µM) | MIC (Candida albicans [14]): 13 to 26 µg/mL (≈ 48.1 to 96.2 µM) | MIC (Nakaseomyces glabratus [15]): 1.9 µg/mL (≈ 7.03 µM) | MIC (Candida tropicalis [16]): 10.4 µg/mL (≈ 38.5 µM) | MIC50 (Candida tropicalis [16]): 13 to 104 µg/mL (≈ 48.1 to 385 µM) | MIC (Nakaseomyces glabratus [17]): 1.9 µg/mL (≈ 7.03 µM) | MIC (Pichia kudriavzevii [18]): 21 µg/mL (≈ 77.7 µM) | MIC (Pichia kudriavzevii [19]): 2.7 µg/mL (≈ 9.99 µM) | MIC (Candida parapsilosis [20]): 5.4 µg/mL (≈ 20 µM) | MIC (Nakaseomyces glabratus [21]): 52.7 µg/mL (≈ 195 µM) | MIC (Candida parapsilosis [22]): 5.2 to 13 µg/mL (≈ 19.2 to 48.1 µM) | MIC50 (Candida parapsilosis [22]): 13 to 104 µg/mL (≈ 48.1 to 385 µM) | MIC (Nakaseomyces glabratus [23]): 1.9 µg/mL (≈ 7.03 µM) | MIC (Candida albicans [24]): 10.4 µg/mL (≈ 38.5 µM) | MIC (Trichophyton rubrum [25]): 120 µM (≈ 32.4 µg/mL) | MIC50 (Candida albicans [26]): 4 to 32 µg/mL (≈ 14.8 to 118 µM) | MIC (Candida albicans [27]): 10.4 µg/mL (≈ 38.5 µM) | MIC (Candida parapsilosis [28]): 5.4 µg/mL (≈ 20 µM) | MIC (Pichia kudriavzevii [29]): 2.7 µg/mL (≈ 9.99 µM) | MIC (Nakaseomyces glabratus [30]): 1.9 µg/mL (≈ 7.03 µM)

O=C(O)[C@H]1O[C@@H](Oc2cc3oc(-c4ccccc4)cc(=O)c3c(O)c2O)[C@H](O)[C@@H](O)[C@@H]1O [BAICALIN]
MIC (Nakaseomyces glabratus [31]): 250 µg/mL | MIC (Candida albicans [32]): 500 µg/mL | MIC (Candida albicans [33]): 500 µg/mL

Oc1cc(O)c2c(c1)O[C@H](c1ccc(O)c(O)c1)[C@@H](O)C2 [CIANIDANOL]
MIC (Candida tropicalis [34]): ≤ 16 µg/mL

CC1(C)C=Cc2c(cc(O)c3c(=O)c(-c4ccc(O)cc4)coc23)O1 [DERRONE]
MIC (Candida parapsilosis [35]): 7.81 µg/mL (≈ 23.2 µM) | MIC (Pichia kudriavzevii [36]): 7.81 µg/mL (≈ 23.2 µM) | MIC (Nakaseomyces glabratus [37]): 7.81 µg/mL (≈ 23.2 µM) | MIC (Candida albicans [38]): 7.81 µg/mL (≈ 23.2 µM)

O=C(O[C@@H]1Cc2c(O)cc(O)cc2O[C@@H]1c1cc(O)c(O)c(O)c1)c1cc(O)c(O)c(O)c1 [EPIGALOCATECHIN GALLATE]
MIC (Candida tropicalis [39]): ≤ 1 µg/mL

OC(Cn1cncn1)(Cn1cncn1)c1ccc(F)cc1F [FLUCONAZOLE]
MIC (Candida albicans [40]): 10.2 µM (≈ 3.12 µg/mL) | MIC (Aspergillus fumigatus [41]): 125 µg/mL (≈ 408 µM) | MIC (Candida albicans [11]): 5.1 to 62.5 µg/mL (≈ 16.7 to 204 µM) | MIC (Trichophyton rubrum [42]): 63 µg/mL (≈ 206 µM) | IC50 [43]: 68.23 µg/mL (≈ 223 µM) | MIC (Trichophyton rubrum [44]): 63 µg/mL (≈ 206 µM)

O=c1c(O[C@@H]2O[C@H](CO)[C@H](O)[C@H](O)[C@H]2O)c(-c2ccc(O)c(O)c2)oc2cc(O)cc(O)c12 [HYPEROSIDE]
MIC (Candida albicans [45]): 256 µg/mL (≈ 551 µM) | MIC (Cryptococcus neoformans [46]): 128 µg/mL (≈ 276 µM) | MIC (Candida parapsilosis [47]): 128 µg/mL (≈ 276 µM)

O=c1c(O)c(-c2cc(O)c(O)c(O)c2)oc2cc(O)cc(O)c12 [MYRICETIN]
MIC (Candida albicans [1]): 16 to 64 µg/mL (≈ 50.3 to 201 µM) | MIC [48]: 4 to 128 µg/mL (≈ 12.6 to 402 µM) | MIC (Nakaseomyces glabratus [5]): 3.9 to 15.7 µg/mL (≈ 12.3 to 49.3 µM) | MIC (Cryptococcus gattii): 128 µg/mL (≈ 402 µM) | MIC (Candida albicans [8]): 16 to 64 µg/mL (≈ 50.3 to 201 µM) | MIC (Nakaseomyces glabratus [9]): 3.9 to 15.7 µg/mL (≈ 12.3 to 49.3 µM) | MIC (Candida tropicalis [49]): 31.2 µg/mL (≈ 98 µM) | MIC (Trichophyton tonsurans): 4 to 128 µg/mL (≈ 12.6 to 402 µM) | MIC (Candida albicans [50]): 31.2 µg/mL (≈ 98 µM) | MIC (Nakaseomyces glabratus [15]): 3.9 to 15.7 µg/mL (≈ 12.3 to 49.3 µM) | MIC (Candida tropicalis [16]): 64 µg/mL (≈ 201 µM) | MIC (Nannizzia gypsea): 4 to 128 µg/mL (≈ 12.6 to 402 µM) | MIC (Nakaseomyces glabratus [17]): 3.9 to 15.7 µg/mL (≈ 12.3 to 49.3 µM) | MIC (Pichia kudriavzevii [18]): 64 µg/mL (≈ 201 µM) | MIC (Nakaseomyces glabratus [21]): 6.79 µg/mL (≈ 21.3 µM) | MIC (Candida parapsilosis [22]): 16 µg/mL (≈ 50.3 µM) | MIC (Nakaseomyces glabratus [23]): 3.9 to 15.7 µg/mL (≈ 12.3 to 49.3 µM) | MIC (Candida albicans [24]): 16 to 64 µg/mL (≈ 50.3 to 201 µM) | MIC (Cryptococcus neoformans [51]): 8 to 128 µg/mL (≈ 25.1 to 402 µM) | MIC (Cryptococcus neoformans [52]): 31.2 µg/mL (≈ 98 µM) | MIC (Saccharomyces cerevisiae): 31.2 µg/mL (≈ 98 µM) | MIC (Candida albicans [27]): 16 to 64 µg/mL (≈ 50.3 to 201 µM) | MIC (Trichophyton rubrum [53]): 4 to 128 µg/mL (≈ 12.6 to 402 µM) | MIC (Nakaseomyces glabratus [30]): 3.9 to 15.7 µg/mL (≈ 12.3 to 49.3 µM)

C[C@@H]1O[C@@H](OC[C@H]2O[C@@H](Oc3c(-c4ccc(O)c(O)c4)oc4cc(O)cc(O)c4c3=O)[C@H](O)[C@@H](O)[C@@H]2O)[C@H](O)[C@H](O)[C@H]1O [RUTIN]
MIC (Candida albicans [45]): > 256 µg/mL | MIC (Cryptococcus neoformans [46]): > 256 µg/mL | MIC (Candida parapsilosis [47]): > 256 µg/mL

From ChEMBL document CHEMBL4311957, “Recent advances in natural antifungal flavonoids and their derivatives” (Bioorg Med Chem Lett, 2019)
